# Test results taken from patent US20200038410A1, “METHODS FOR TREATING NEUROPATHY” (Loyola University Chicago, priority 2018, published 2020).
# Key:
# [1] = system: LXRs in organotypic cultures of DRG; test: LXR target gene expression (ABCA1) in organotypic cultures of DRG; assay type: cell-based, mice; details: organotypic cultures of DRG stimulated with GW3965; FIG. 1B
# Description: FIG. 1A is a chart representing distribution of nuclear receptor mRNA in the whole DRG. Normalized mRNA expression levels were defined as Absent if the Ct value was greater than 40, Low if the level was […] arbitrary units, Moderate if the level was between 0.025 and 0.25, and High if the level was greater than 0.25 arbitrary units. […] FIGS. 1D and 1F represent data of protein levels of CHOP, an ER stress marker, in DRG of mice fed western diet (WD) compared to normal chow (NC) (FIG. 1D, n=10 DRG/group), and in ex vivo organotypic whole DRG cultures treated with palmitate and LXR agonist (FIG. 1F, n=individual experiments in triplicate). FIGS. 1C, 1E, and 1G represent data of mRNA levels of ER stress markers using 18S to normalize, in DRG of WD and NC fed mice (FIG. 1C, n=4 mice/group), in organotypic whole DRG cultures (FIG. 1E), and in primary neuronal culture of DRG neurons treated with LXR agonist and palmitate (FIG. 1G, n=5 individual experiments). (All values are Mean±S.E.M, with vehicle group defined as 100%; *p<0.05 with vehicle; **p<0.05 with vehicle+palmitate). […]
# organotypic DRG cultures = test: Palmitate-induced ER stress markers (mRNA) in organotypic whole DRG cultures; assay type: cell-based, mice; details: palmitate treated organotypic DRG cultures, compared to vehicle; FIG. 1E
# Description: (§1) FIG. 1A is a chart representing distribution of nuclear receptor mRNA in the whole DRG. Normalized mRNA expression levels were defined as Absent if the Ct value was greater than 40, Low if the level was […] arbitrary units, Moderate if the level was between 0.025 and 0.25, and High if the level was greater than 0.25 arbitrary units. […] FIGS. 1D and 1F represent data of protein levels of CHOP, an ER stress marker, in DRG of mice fed western diet (WD) compared to normal chow (NC) (FIG. 1D, n=10 DRG/group), and in ex vivo organotypic whole DRG cultures treated with palmitate and LXR agonist (FIG. 1F, n=individual experiments in triplicate). FIGS. 1C, 1E, and 1G represent data of mRNA levels of ER stress markers using 18S to normalize, in DRG of WD and NC fed mice (FIG. 1C, n=4 mice/group), in organotypic whole DRG cultures (FIG. 1E), and in primary neuronal culture of DRG neurons treated with LXR agonist and palmitate (FIG. 1G, n=5 individual experiments). (All values are Mean±S.E.M, with vehicle group defined as 100%; *p<0.05 with vehicle; **p<0.05 with vehicle+palmitate).
# ER stress has been identified as a potential culprit underlying type 1 and type 2 diabetes. Increased expression of the ER stress marker CHOP was reported in metabolic tissues of diabetic mice, while targeted disruption of CHOP gene delayed the onset of diabetes. […]
# [2] = system: DRG primary neuronal cultures; test: Palmitate-induced ER stress markers and lpcat3 mRNA in DRG primary neuronal cultures; assay type: cell-based, mice; details: DRG neurons stimulated by LXR agonist; FIG. 1G
# Description: as §1
# Previous research has shown that LXRs could be involved in the regulation of organelles/membrane phospholipid composition by regulating the expression of LPCAT3 (lysophospholipid acyltransferase).
# WD-fed mice = test: Western diet-induced allodynia, von Frey test; assay type: in vivo; details: 25 mg/kg i.p. twice a week for three weeks after eight weeks of WD, compared to WD vehicle, FIG. 2A
# Description: End point levels of serum triglycerides (FIG. 2B), cholesterol (FIG. 2C), in mice fed NC or WD treated with agonist. FIG. 2D represents mRNA levels of ER stress markers normalized to 18S in DRG of NC or WD-fed mice treated with LXR agonist. (n=4 mice/group; all values are Mean±S.E.M; for mRNA relative levels were plotted with NC-vehicle group defined as 100%; *p<0.05 with NC-Veh; **p<0.05 with WD-Veh). The mechanical hypersensitivity observed early in peripheral neuropathy is believed to be associated with metabolic syndrome and independent of diabetes. […] The von Frey test was performed and measured phasic response frequency to calculate the 50% threshold in WD and NC-fed mice. […] The above data linking LXR and ER stress in DRG led the inventors to assess whether activation of LXRs could change the WD-induced allodynia. WT mice were fed either NC or WD for a total of twelve weeks after weaning, while assessing the onset and progression of allodynia. […] Weight-matched mice on either diet were treated for three weeks with either GW3965 (25 mg/kg body weight; twice a week by i.p.) or vehicle after eight weeks of WD diet (twelve weeks of age). […] Sensitivity of mice to innocuous stimuli was evaluated over the duration of GW3965 treatment. […]
# DRG of WD-fed mice = test: ER stress marker (UPR target gene) mRNA in DRG of WD-fed mice treated with agonist; assay type: in vivo; details: 25 mg/kg i.p. twice a week for three weeks, FIG. 2D
# Description: End point levels of serum triglycerides (FIG. 2B), cholesterol (FIG. 2C), in mice fed NC or WD treated with agonist. FIG. 2D represents mRNA levels of ER stress markers normalized to 18S in DRG of NC or WD-fed mice treated with LXR agonist. (n=4 mice/group; all values are Mean±S.E.M; for mRNA relative levels were plotted with NC-vehicle group defined as 100%; *p<0.05 with NC-Veh; **p<0.05 with WD-Veh). The above data linking LXR and ER stress in DRG led the inventors to assess whether activation of LXRs could change the WD-induced allodynia. WT mice were fed either NC or WD for a total of twelve weeks after weaning, while assessing the onset and progression of allodynia. […] Weight-matched mice on either diet were treated for three weeks with either GW3965 (25 mg/kg body weight; twice a week by i.p.) or vehicle after eight weeks of WD diet (twelve weeks of age). As activation of LXRs elevated triglyceride levels in liver and plasma, the dosage of LXR agonist was adjusted to minimize the increase of triglyceride and cholesterol (FIGS. 2B and 2C). Sensitivity of mice to innocuous stimuli was evaluated over the duration of GW3965 treatment. […] Then, the expression of UPR target genes in DRG of NC- or WD-fed mice treated with vehicle or GW3965 was compared.
# [3] = system: Nav1.8 expressing neurons of the DRG; test: ER stress marker mRNA in Nav1.8 expressing sensory neurons (RiboTag IP) of DRG organotypic cultures treated with palmitate; assay type: cell-based, mice; details: Nav1.8 sensory neuron specific mRNA from DRG organotypic cultures, FIG. 3F
# Description: FIGS. 3A through 3F include charts and images representing that an LXR agonist decreased lipid-induced ER stress in DRG neurons expressing Nav1.8. […] FIG. 3B represents the generation of tissue specific RiboTag mouse. Sensory neuron specific (Nav1.8) Cre mice were utilized to generate Ribotag-Nav1.8-Cre mice. FIG. 3C represents data from western blots on whole DRG of RiboTag-Nav1.8-Cre mice after immunoprecipitation for HA. FIG. 3D represents data from immunohistochemistry on DRG slices for HA in sensory neurons (in green—HA, blue—DAPI/nuclei). FIG. 3E represents actin normalized mRNA levels of positive (Nav1.8) and negative (GFAP, PV) markers of Nav1.8 expressing neurons in whole DRG (WT), input, and IP samples. FIG. 3F represents actin normalized mRNA levels of ER stress markers, in sensory neurons treated with LXR agonist and palmitate. Sensory neuron specific mRNA was isolated by immunoprecipitation from whole DRG organotypic cultures treated with agonist and palmitate (n=3 individual experiments). (Values are Mean±S.E.M, with vehicle group defined as 100%; *p<0.05 with vehicle; **p<0.05 with vehicle+palmitate). […] The mRNA levels of ER stress markers undergoing translation were analyzed in Nav1.8 expressing neurons. […]
# [4] = system: 80-week old mice presenting signs of neuropathy; test: Intra epidermal nerve fibers density in paw skin of 80-week old mice with neuropathy; assay type: in vivo; details: gavaged twice a week for three months, skin of paws, FIG. 6
# Description: FIG. 6 is a bar chart evidencing that treatments with a mixed solution of butyrate and an LXR agonist (GW3965) trigger an enhanced regeneration mechanism that improves neuropathy.
# In an additional investigation, 80-week old mice presenting signs of neuropathy (loss of fibers in the skin) were gavaged twice a week during a three-month period with a GW3965 solution or a mixed solution of GW3965 and butyrate using the indicated concentrations reported in FIG. 6. After three months, the mice were euthanized and the intra epidermal nerve fibers density was counted in the skin of their paws.
structure (smiles),measurement,setting,value
O=C(O)Cc1cccc(OCCCN(Cc2cccc(C(F)(F)F)c2Cl)CC(c2ccccc2)c2ccccc2)c1 [GW3965],"LXR canonical gene expression, ATP-binding cassette transporter (ABCA1)",[1],significant increase
same,mRNA levels of ER stress markers,organotypic DRG cultures,decreased
same,lpcat3 mRNA,[2],significant increase
same,progression of WD-induced allodynia (von Frey sensitivity to innocuous stimuli),WD-fed mice,delay in the progression of WD-induced allodynia
same,expression of ER stress markers in DRG,DRG of WD-fed mice,decreased expression of ER stress markers
same,"CHOP, ATF4, and sXBP1 mRNA levels increased by palmitate",[3],blunted
same,number of nerves (intra epidermal nerve fibers density),[4],increased the number the nerves
